From patent US12145927B2 (BRISTOL-MYERS SQUIBB COMPANY, priority 2018, dated 2024) come the findings set out here.

The test addresses T1, human IDO1 (Homo sapiens, UniProt P14902).
T1 construct: expressed in transfected cells
As to the kind of experiment: IDO inhibition assay in human IDO1/HEK293 cells (IDO1 HEK Human). The class given is cell-based. The note with it: HEK293 cells stably expressing human IDO1; 20 hours incubation; absorbance at 490 nm after Ehrlich reagent. How it is done:
HEK293 cells were transfected with a pCDNA-based mammalian expression vector harboring human IDO1 cDNA (NM 002164.2) by electroporation. They were cultured in medium (DMEM with 10% FBS) containing 1 mg/ml G418 for two weeks. Clones of HEK293 cells that stably expressed human IDO1 protein were selected and expanded for IDO inhibition assay.
The human IDO1/HEK293 cells were seeded at 10,000 cells per 50 μL per well with RPMI/phenol red free media contains 10% FBS in a 384-well black wall clear bottom tissue culture plate (Matrix Technologies LLC) 100 nL of certain concentration of compound was then added to each well using ECHO liquid handling systems. The cells were incubated for 20 hours in 37° C. incubator with 5% CO2.
The compound treatments were stopped by adding trichloroacetic acid (Sigma-Aldrich) to a final concentration at 0.2%. The cell plate was further incubated at 50° C. for 30 minute. The equal volume supernatant (20 μL) and 0.2% (w/v) Ehrlich reagent (4-dimethylaminobenzaldehyde, Sigma-Aldrich) in glacial acetic acid were mixed in a new clear bottom 384-well plate. This plate was then incubated at RT for 30 minute. The absorbance at 490 nm was measured on Envision plate reader.
Compound IC50 values were calculated using the counts of 500 nM of a reference standard treatment as one hundred percent inhibition, and counts of no compound but DMSO treatment as zero percent inhibition.

As usually defined, the IC50 is the point on the concentration scale where inhibition reaches its midpoint.

T1 sequence (P14902 whole entry): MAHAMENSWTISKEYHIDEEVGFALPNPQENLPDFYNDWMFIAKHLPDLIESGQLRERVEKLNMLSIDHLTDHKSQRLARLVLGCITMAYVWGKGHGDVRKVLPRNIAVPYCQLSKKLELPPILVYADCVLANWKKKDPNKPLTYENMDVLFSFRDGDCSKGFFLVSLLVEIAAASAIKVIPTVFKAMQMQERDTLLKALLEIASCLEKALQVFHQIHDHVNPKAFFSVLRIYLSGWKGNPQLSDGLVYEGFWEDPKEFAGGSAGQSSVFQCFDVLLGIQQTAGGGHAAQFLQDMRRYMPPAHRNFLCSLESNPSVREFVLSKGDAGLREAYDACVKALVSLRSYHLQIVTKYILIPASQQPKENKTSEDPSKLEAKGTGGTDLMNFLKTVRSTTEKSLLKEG

`C=C[C@H]1Oc2c(NC(=O)Nc3ccc(C)cc3)cc(-c3ccccc3-c3nnn[nH]3)cc2[C@@H]1CCC(F)(F)F` (single isomer, unassigned) [Example 129, 1-((trans)-5-(2-(1H-tetrazol-5-yl)phenyl)-3-(3,3,3-trifluoropropyl)-2-vinyl-2,3-dihydrobenzofuran-7-yl)-3-(p-tolyl)urea] came in with an IC50 of 16 nM.

The compound `Cc1ccc(CC(=O)Nc2cc(-c3ccccc3-c3nnn[nH]3)cc3c2OCCCC3C2CC2)cc1` (racemic) [37 (Rac), N-(7-(2-(1H-tetrazol-5-yl)phenyl)-5-cyclopropyl-2,3,4,5-tetrahydrobenzo[b]oxepin-9-yl)-2-(p-tolyl)acetamide] came in with an IC50 of 117 nM.

For `Cc1ccc(-c2noc(Nc3cc(-c4ccccc4-c4nnn[nH]4)cc4c3OCCCC4c3ccccc3)n2)cc1` (single isomer, unassigned) [26 (En. 2), N-(7-(2-(1H-tetrazol-5-yl)phenyl)-5-phenyl-2,3,4,5-tetrahydrobenzo[b]oxepin-9-yl)-3-(p-tolyl)-1,2,4-oxadiazol-5-amine], it took 424 nM to reach half-maximal inhibition (IC50).

In the case of `Cc1ccc(NC(=O)Nc2cc(-c3ccccc3-c3nnn[nH]3)cc3c2OCCC(C)C3c2ccccc2)cc1` (single isomer, unassigned) [Example 44, 1-(7-(2-(1H-tetrazol-5-yl)phenyl)-4-methyl-5-phenyl-2,3,4,5-tetrahydrobenzo[b]oxepin-9-yl)-3-(p-tolyl)urea], the IC50 is 1.7 nM.

The compound `Cc1ccc(CC(=O)Nc2cc(-c3ccccc3-c3nnn[nH]3)cc3c2OCCCC3c2ccccc2)cc1` (single isomer, unassigned) [Example 2-2, N-(7-(2-(1H-tetrazol-5-yl)phenyl)-5-phenyl-2,3,4,5-tetrahydrobenzo[b]oxepin-9-yl)-2-(p-tolyl)acetamide] returned an IC50 of 31.8 nM.

Compound `CCC(C)C1CCCOc2c(NC(=O)Cc3ccc(C)cc3)cc(-c3ccccc3-c3nnn[nH]3)cc21` (single isomer, unassigned) [30 (Dia. mix 1), N-(7-(2-(1H-tetrazol-5-yl)phenyl)-5-(sec-butyl)-2,3,4,5-tetrahydrobenzo[b]oxepin-9-yl)-2-(p-tolyl)acetamide] displayed an IC50 of 77.6 nM.

Take `Cc1ccc(NC(=O)Nc2cc(-c3ccccc3-c3nnn[nH]3)cc3c2OCCCC3c2ccccc2)nc1` (single isomer, unassigned) [Example 3, 1-(7-(2-(1H-tetrazol-5-yl)phenyl)-5-phenyl-2,3,4,5-tetrahydrobenzo[b]oxepin-9-yl)-3-(5-methylpyridin-2-yl)urea]: the IC50 was 35.6 nM.

In turn, `Cc1ccc(NC(=O)Nc2cc(-c3ccccc3-c3nnn[nH]3)cc3c2OCC(O)C(O)C3c2ccccc2)cc1` (racemic) [9 (Rac.), 1-(7-(2-(1H-tetrazol-5-yl)phenyl)-3,4-dihydroxy-5-phenyl-2,3,4,5-tetrahydrobenzo[b]oxepin-9-yl)-3-(p-tolyl)urea] gave an IC50 of 1040 nM.

Take `Cc1ccc(CC(=O)Nc2cc(-c3ccccc3-c3nnn[nH]3)cc3c2OCCCC3c2ccccc2)cc1` (single isomer, unassigned) [Example 2-3, N-(7-(2-(1H-tetrazol-5-yl)phenyl)-5-phenyl-2,3,4,5-tetrahydrobenzo[b]oxepin-9-yl)-2-(p-tolyl)acetamide]: half-maximal inhibition (IC50) was put at 21.4 nM.

`CCC(C)C1CCCOc2c(NC(=O)Nc3ccc(C)cc3)cc(-c3ccccc3-c3nnn[nH]3)cc21` (single isomer, unassigned) [Example 29, 1-(7-(2-(1H-tetrazol-5-yl)phenyl)-5-(sec-butyl)-2,3,4,5-tetrahydrobenzo[b]oxepin-9-yl)-3-(p-tolyl)urea] registered an IC50 of 18 nM.

As to `CCC(C)C1CCCOc2c(NC(=O)Cc3ccc(C)cc3)cc(-c3ccccc3-c3nnn[nH]3)cc21` (single isomer, unassigned) [30 (En. 1), N-(7-(2-(1H-tetrazol-5-yl)phenyl)-5-(sec-butyl)-2,3,4,5-tetrahydrobenzo[b]oxepin-9-yl)-2-(p-tolyl)acetamide], half-maximal inhibition (IC50) required 4.1 nM.
